Data taken from the supplement of paper PMC10307832.

Experiments:
Experiment in all cases: relative viability (nuclei count vs DMSO), 5 days (fraction); higher = more cells survive
[1] = compound: CCN1C(=O)C2=CC(=C(N=C2N(C1=O)C3CC3)N)C(=O)N + O=C(c1cc(Cc2n[nH]c(=O)c3ccccc23)ccc1F)N1CCN(C(=O)C2CC2)CC1 [Olaparib] (partner 8 µM)
Summary of the method: (§1)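 Lung cancer cell lines in 1536-well plates got either a single drug or a fixed anchor-drug dose together with five library-drug doses (not always all listed) in √10 steps, by pin tool, on the day after seeding. Nuclei were counted after 5 days, and relative viability is the treated-to-vehicle ratio of nuclei counts. Values are medians of duplicate plates.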

[2] = compound: CCN1C(=O)C2=CC(=C(N=C2N(C1=O)C3CC3)N)C(=O)N + COc1cc2c(Oc3ccc(NC(=O)C4(C(=O)Nc5ccc(F)cc5)CC4)cc3F)ccnc2cc1OCCCN1CCOCC1 [Foretinib] (partner 0.25 µM)
Summary of the method: as §1

[3] = compound: CCN1C(=O)C2=CC(=C(N=C2N(C1=O)C3CC3)N)C(=O)N + Cc1nc(Nc2ncc(C(=O)Nc3c(C)cccc3Cl)s2)cc(N2CCN(CCO)CC2)n1 [Dasatinib] (partner 0.075 µM)
Summary of the method: as §1

[4] = compound: CCN1C(=O)C2=CC(=C(N=C2N(C1=O)C3CC3)N)C(=O)N + Nc1ncn([C@H]2C[C@H](O)[C@@H](CO)O2)c(=O)n1 [Decitabine] (partner 2 µM)
Summary of the method: as §1

[5] = compound: CCN1C(=O)C2=CC(=C(N=C2N(C1=O)C3CC3)N)C(=O)N + CC1(C)CCC(c2ccc(Cl)cc2)=C(CN2CCN(c3ccc(C(=O)NS(=O)(=O)c4ccc(N[C@H](CCN5CCOCC5)CSc5ccccc5)c(S(=O)(=O)C(F)(F)F)c4)cc3)CC2)C1 [Navitoclax] (partner 0.5 µM)
Summary of the method: as §1

Cell Line	relative viability ([1]; first compound 0.253 µM)	relative viability ([1]; first compound 0.8 µM)	relative viability ([1]; first compound 2.53 µM)	relative viability ([1]; first compound 8 µM)	relative viability ([2]; first compound 0.253 µM)	relative viability ([2]; first compound 0.8 µM)	relative viability ([2]; first compound 2.53 µM)	relative viability ([2]; first compound 8 µM)	relative viability ([3]; first compound 0.253 µM)	relative viability ([3]; first compound 0.8 µM)	relative viability ([3]; first compound 2.53 µM)	relative viability ([3]; first compound 8 µM)	relative viability ([4]; first compound 0.253 µM)	relative viability ([4]; first compound 0.8 µM)	relative viability ([4]; first compound 2.53 µM)	relative viability ([4]; first compound 8 µM)	relative viability ([5]; first compound 0.253 µM)	relative viability ([5]; first compound 0.8 µM)	relative viability ([5]; first compound 2.53 µM)	relative viability ([5]; first compound 8 µM)
NCI-H1651	0.223	0.177	0.202	0.186	0.921	0.838	0.656	0.772	0.454	0.465	0.357	0.381	0.534	0.585	0.582	0.386	0.996	1.27	0.969	1.03
LC-2-ad	0.803	0.892	0.736	0.772	0.926	0.855	0.986	0.94	0.537	0.526	0.652	0.698	0.765	0.735	0.681	0.777	0.416	0.45	0.462	0.518
HCC-827	0.681	0.679	0.584	0.699	0.982	0.993	0.99	1.06	0.348	0.348	0.266	0.284	0.342	0.284	0.332	0.319	1	1.01	0.98	0.954
UMC-11	0.376	0.337	0.312	0.365	1.02	1.05	1.1	1.13	0.463	0.434	0.485	0.496	0.71	0.604	0.617	0.457	0.312	0.277	0.308	0.324
COR-L 105	0.728	0.768	0.779	0.677	0.748	1.01	0.864	1.01	0.358	0.261	0.264	0.304	0.712	0.657	0.597	0.785	0.847	0.74	0.586	0.794
LOU-NH91	0.913	0.924	0.92	0.946	0.847	0.855	0.978	0.916	0.499	0.526	0.54	0.527	0.849	0.781	0.768	0.798	0.656	0.68	0.701	0.689
NCI-H727	0.81	0.705	0.539	0.774	1.06	0.889	0.888	1.23	0.352	0.323	0.333	0.422	0.882	0.842	0.802	0.676	0.463	0.51	0.484	0.596
LU99A	0.256	0.285	0.256	0.275	0.732	0.8	0.789	0.857	0.541	0.548	0.528	0.511	0.765	0.952	0.873	0.828	0.778	0.741	0.747	0.875
NCI-H1650	0.707	0.665	0.714	0.733	0.913	1.15	0.955	1.12	0.279	0.264	0.308	0.329	0.351	0.404	0.43	0.401	1.1	1.25	1.1	1.19
NCI-H596	0.662	0.72	0.767	0.693	0.956	0.94	0.788	0.962	0.625	0.569	0.519	0.548	–	0.925	0.955	0.951	1.07	0.904	0.999	1.17
HOP-62	0.349	0.488	0.41	0.572	1	1.11	1.03	1.03	0.715	0.614	0.695	0.598	0.242	0.218	0.161	0.184	1.08	1.11	0.969	0.924
SK-LU-1	0.458	0.446	0.429	0.493	0.925	0.799	0.839	1	0.196	0.184	0.176	0.187	0.63	0.72	0.782	0.669	0.797	0.855	0.977	0.865
NCI-H1734	0.672	0.695	0.579	0.675	0.835	0.764	0.745	1.01	0.437	0.459	0.425	0.453	0.499	0.488	0.502	0.565	0.737	0.813	0.778	0.888
EKVX	0.849	0.972	0.792	0.682	0.785	0.743	0.875	0.639	0.496	0.479	0.461	0.469	0.352	0.33	0.352	0.296	0.929	0.897	0.952	0.989
HARA	0.897	0.904	0.915	0.841	0.884	0.989	0.857	0.926	0.321	0.234	0.233	0.246	0.473	0.587	0.402	0.721	1.15	1.13	1.08	1.12
EMC-BAC-2	0.546	–	0.498	0.487	1.17	1	0.935	1.17	0.35	0.305	0.328	0.318	1.05	–	0.89	0.94	1.2	1.17	1.18	1.32

Cell Line	relative viability ([1]; first compound 0.253 µM)	relative viability ([1]; first compound 0.8 µM)	relative viability ([1]; first compound 2.53 µM)	relative viability ([1]; first compound 8 µM)	relative viability ([2]; first compound 0.253 µM)	relative viability ([2]; first compound 0.8 µM)	relative viability ([2]; first compound 2.53 µM)	relative viability ([2]; first compound 8 µM)	relative viability ([3]; first compound 0.253 µM)	relative viability ([3]; first compound 0.8 µM)	relative viability ([3]; first compound 2.53 µM)	relative viability ([3]; first compound 8 µM)	relative viability ([4]; first compound 0.253 µM)	relative viability ([4]; first compound 0.8 µM)	relative viability ([4]; first compound 2.53 µM)	relative viability ([4]; first compound 8 µM)	relative viability ([5]; first compound 0.253 µM)	relative viability ([5]; first compound 0.8 µM)	relative viability ([5]; first compound 2.53 µM)	relative viability ([5]; first compound 8 µM)
PC-3 [JPC-3]	1.13	–	1.18	1.21	1.02	1.03	1	0.929	1.05	1.04	1.05	0.973	0.81	–	0.871	0.886	0.747	0.838	0.861	0.755
NCI-H520	0.335	0.341	0.356	0.3	0.544	0.709	0.827	0.899	0.17	0.222	0.222	0.31	0.483	0.48	0.474	0.428	1.04	1.22	1.02	1.41
NCI-H1755	0.908	0.872	0.831	0.843	0.974	0.887	0.914	0.875	0.411	0.506	0.459	0.45	0.771	0.743	0.704	0.652	1.03	0.936	0.98	0.938
NCI-H2087	0.638	0.82	0.643	0.585	1.04	1.25	1.08	1.12	0.746	0.829	0.818	0.753	0.324	0.251	0.297	0.298	0.94	1.11	0.994	0.941
NCI-H2023	0.463	0.477	0.451	0.487	0.756	0.743	0.845	0.848	0.629	0.478	0.546	0.55	0.214	0.223	0.209	0.215	0.946	1.02	0.955	0.95
NCI-H2085	0.835	0.815	0.72	0.814	0.992	0.874	0.834	0.947	0.224	0.259	0.227	0.23	0.566	0.522	0.563	0.524	1.15	1.1	1.2	0.997
LCLC-97TM1	0.422	0.397	0.318	0.419	0.869	0.866	0.86	1.1	0.793	0.948	0.855	0.883	0.207	0.225	0.244	0.262	0.431	–	–	0.53
NCI-H2126	0.876	0.932	0.887	0.939	1.34	0.76	1.09	1.12	0.632	0.55	0.596	0.52	0.552	0.544	0.541	0.622	0.86	0.884	0.736	0.775
201T	0.87	0.869	0.832	0.901	1.01	1.07	1.15	1.2	0.559	0.518	0.574	0.496	0.866	0.81	0.814	0.844	1.26	1.21	1.14	1.22
NCI-H1915	0.271	0.284	0.261	0.286	1.05	1.09	1.11	1.04	0.294	0.307	0.312	0.285	0.243	0.261	0.252	0.249	0.738	0.799	0.752	0.711
BEN	1.16	1.09	1.01	1.08	1.13	0.618	0.69	0.558	0.368	0.267	0.313	0.356	0.814	0.675	0.734	0.657	0.074	0.0565	0.0783	0.0841
NCI-H2347	0.576	0.612	0.55	0.518	0.797	1.09	1.43	1.09	0.294	0.307	0.161	0.323	0.722	0.66	0.622	0.643	0.816	0.871	0.801	0.749
H3255	0.567	0.556	0.567	0.633	0.856	0.802	0.932	1.01	0.403	0.444	0.425	0.347	0.582	0.582	0.61	0.604	0.625	0.509	0.617	0.559
NCI-H441	0.559	0.578	0.499	0.649	0.925	0.82	0.956	0.995	0.734	0.585	0.728	0.683	0.305	0.244	0.265	0.258	0.768	0.482	0.64	0.649
NCI-H1975	0.747	0.82	0.734	0.785	1.02	0.916	0.895	0.951	0.381	0.341	0.356	0.268	0.352	0.401	0.388	0.365	1.31	1.06	1.19	1.02
A-427	0.763	0.792	0.703	0.744	1.13	1.13	1.08	1.21	0.729	0.825	0.744	0.779	0.552	0.537	0.521	0.563	0.994	0.965	0.95	0.98
